Results taken from US11433143B2, “Nano-enabled immunotherapy in cancer” (The Regents of the University of California, priority 2017, dated 2022).

Tests used:
[1] = system: mTOR signaling; assay: Western blot of mTOR signaling (P-S6K phosphorylation) in 4T1 cells in tryptophan-deficient DMEM; assay type: cell-based, mouse; conditions: 3 h, vs free IND
[2] = system: 4T1 cells; assay: ICD screening of chemo agents in 4T1 cells (CRT expression, HMGB1 release); assay type: cell-based, mouse; conditions: multi-parameter cellular screening
Description: One possible approach is to use chemotherapy to induce immunogenic cell death or ICD.

[3] = system: KPC pancreatic cancer cells; assay: Induction of ICD marker CRT (flow cytometry) and HMGB1 release (ELISA) in cultured KPC pancreatic cancer cells; assay type: cell-based, mouse; conditions: 24 h; for induction of the ICD marker CRT: DOX 20 μM, OX 500 μM, activated DOX (DACHPt) 500 μM, flow cytometry; for HMGB1 release: ELISA
Protocol: (§1) FIG. 6. Panel A) Flow cytometry experiment showing the induction of the ICD marker, CRT, in cultured KPC pancreatic cancer cells in the presence of PBS, DOX (20 μM), OX (500 μM), and activated DOX (a.k.a. DACHPt, 500 μM) for 24 h. HMBG1 release was measured using ELISA. Panel B) Animal experimentation using 2 rounds of vaccination one week apart, followed by injecting live KPC cells SC on the contralateral side. The details of the animal vaccination experiment are provided in the methods section. Tumors were collected on day 26 for size measurement and IHC analysis. Panel C) Tumor size measurement on the contralateral side. Panel D) Explanted tumor at the contralateral side. Panel E) Spaghetti curves to show KPC tumor growth in the contralateral flank. Panel F) Tumor collection was performed after euthanizing the animal to conduct IHC. IHC staining of CD8 and Foxp3 T cells was used to calculate CD8/FoxP3 T cells ratio in each group. *p<0.05; **p<0.01
ICD is a modified form of apoptosis that can be used to initiate an effective immune response against endogenous tumor antigens (Kroemer et al. (2013) Ann. Rev. Immunol., 31: 51-72).^1 Since this model was 1st proposed against the backdrop of a select number of cancer drugs (Id.), we focused on the use of OX, because it is FDA-approved for PDAC treatment. As a component of the FOLFIRINOX regimen (in combination with irinotecan, 5-FU and folinic acid). For comparison, we also included the anthracycline antibiotic, DOX, as a positive control and cisplatin (Cis) as a negative control for the screening of PDAC cell lines, using cell surface CRT expression (Obeid et al. (2017) Nat. Med., 13(1): 54-61; Casares et al. (2005) J. Exp. Med. 202(12): 1691-1701; Fucikova et al. (2011) Canc. Res. 71(14): 4821-4833; Tesniere et al. (2010) Oncogene, 29(4): 482-491; Galluzzi et al. (2012) Oncogene, 31(15): 1869-1883; Martins et al. (2011) Oncogene, 30(10): 1147-1158). CRT is an endoplasmic reticulum (ER) stress protein that translocates to the surface membrane of cancer cells undergoing ICD (Obeid et al. (2017) Nat. Med., 13(1): 54-61; Fucikova et al. (2011) Canc. Res. 71(14): 4821-4833). Screening for CRT expression was performed in murine KPC cells, derived from a spontaneous tumor that developed in a transgenic Kras^LSL-G12D/+/Trp53^LSL-R172H/+/Pdx-1-Cre (KPC) mouse (Hingorani et al. (2005) Cancer cell, 7(5): 469-483).
The KPC model recapitulates many of disease features of human PDAC, including oncogene expression, development of a robust cancer stroma, extensive local invasion and distant metastases (Tones et al. (2013) PloS one, 8(11): e80580; Tseng et al. (2010) Clin. Canc. Res. 16(14): 3684-3695). DOX and OX and activated DOX induced the ICD marker CRT in cultured KPC pancreatic cancer cells (FIG. 6, panel A). […]

[4] = system: KPC tumor; assay: Vaccination with drug-treated dying KPC cells, live KPC challenge on contralateral side; assay type: in vivo, mouse; conditions: for KPC tumor growth in the contralateral flank (spaghetti curves) / KPC tumor size on the contralateral side: 2 rounds of vaccination one week apart; for KPC tumor size on the contralateral side: tumors collected on day 26
Protocol: as §1, with “Panel A) Flow cytometry experiment showing the induction of the ICD marker, CRT, in cultured KPC pancreatic cancer cells in the presence of PBS, DOX (20 μM), OX (500 μM), and activated DOX (a.k.a.” left out, “IHC.” for “IHC. IHC staining of CD8 and Foxp3 T cells was used to calculate CD8/FoxP3 T cells ratio in each group. *p<0.05; **p<0.01”
Animal experiments were performed using two rounds of vaccination one week apart, followed by injecting live KPC cells SC on the contralateral side (FIG. 6, panel B). Tumors were collected on day 26 for size measurement and IHC analysis.
Tumor collection was performed after euthanizing the animals to conduct IHC. IHC staining of CD8 and Foxp3 T cells was used to calculate CD8/FoxP3 T cell ratio in each group (see, e.g., FIG. 6, panel F).

[5] = Solubility and log P; assay type: physicochemical
[6] = PK characteristics of free IND; conditions: in vivo
[7] = Determination of MTD doses in normal mice; conditions: mouse, in vivo, single IV administration
Protocol: FIG. 26. Panel A) Determination of MTD doses for free MTX and liposomal MTX in normal mice. MTD doses for free MTX and liposomal MTX were 3 and 15 mg/kg for single IV administration. Due to the high MTD of liposomal MTX, we tested the efficacy of the MTX liposome at low dose (1 mg/Kg×3 times) and high dose (3 mg/Kg×3 times). Panel B) Pilot tumor size measurement in 4T1 orthotopic tumor-bearing mice (n=6) receiving IV free drug or MTX-only liposome. For free drug treatment, we have included 2 two schedules namely single IV at 3 mg/kg at Day 8 or IV injections at 1 mg/kg at Day 8, 11 and 14. Since MTX liposome has a 5× higher MTD dose, the tumor mice received single IV at 3 mg/kg at Day 8 or IV injections at Day 8, 11 and 14.

[8] = system: 4T1 cells; assay: CRT induction by liposomes in 4T1 cells (flow cytometry)
Description: Panel B) All the particles were fully characterized abiotically and biotically.

[9] = cited from earlier work

With 16:0 LysoPC-indoximod [IND-PL] the “effect on mTOR signaling (phosphorylation of P-S6K)” value [1] was “enhanced effect”.
For O=c1[nH]cc(F)c(=O)[nH]1 [5-FU, 5-fluorouracil], the “ICD induction (calreticulin expression, release of HMGB1)” value (“ICD induction” below) [2] was “failed to induce the same effect”.
With COc1cccc2c1C(=O)c1c(O)c3c(c(O)c1C2=O)C[C@@](O)(C(=O)CO)C[C@@H]3O[C@H]1C[C@H](N)[C@H](O)[C@H](C)O1 [DOX, doxorubicin] the “ICD induction” value [2] was “can induce”, the “induction of the ICD marker CRT” value [3] was “induced” and the HMGB1 release [3] was “increased”. For the same molecule, the “KPC tumor growth in the contralateral flank (spaghetti curves)” value [4] was “decrease” and the “KPC tumor size on the contralateral side” value [4] was “significant reduction”.
For Cn1cc(C[C@@H](N)C(=O)O)c2ccccc21 [Free IND, 1-methyl-D-tryptophan], the “water solubility” value [5] was “relatively water insoluble” and the PK characteristics [6] was “unfavorable PK characteristics”.
With O=C1c2c(O)ccc(O)c2C(=O)c2c(NCCNCCO)ccc(NCCNCCO)c21 [MTX, mitoxantrone] the “ICD induction” value [2] was “can induce”, the MTD [7] was 3 mg/kg and the “CRT induction / ICD response in 4T1 cells (FIG. 31 panel B)” value [8] was “generation of an ICD response”.
In the case of O=C1[O][Pt]2([NH][C@@H]3CCCC[C@H]3[NH]2)[O]C1=O [OX, oxaliplatin], the “induction of the ICD marker CRT” value [3] is reported as “induced”, the HMGB1 release [3] is reported as “increased” and the “KPC tumor growth in the contralateral flank (spaghetti curves)” value [4] is reported as “decrease”. The “KPC tumor size on the contralateral side” value [4] was “significant reduction” and the “CD8+/Foxp3+ ratio” value ([4]; local and systemic tumor sites) was “capable of increasing”.
In the case of N.N.[Cl][Pt][Cl] [cisplatin], the “ICD induction” value [2] is reported as “failed to induce the same effect”.
For NS(=O)(=O)NCCNc1nonc1C(=NO)Nc1ccc(F)c(Br)c1 [epacadostat], the solubility in ethanol [9] is listed as > 20 mg/mL.
For CC(=O)O[C@H]1C(=O)[C@@]2(C)[C@H]([C@H](OC(=O)c3ccccc3)[C@]3(O)C[C@H](OC(=O)[C@H](O)[C@@H](NC(=O)c4ccccc4)c4ccccc4)C(C)=C1C3(C)C)[C@]1(OC(C)=O)CO[C@@H]1C[C@@H]2O [paclitaxel], the “ICD induction” value [2] was “ICD inducer”.
